Patent US20120059056A1, “CARBONATE DERIVATIVES AS SKIN CARE” (EASTMAN CHEMICAL COMPANY, priority 2010, published 2012)

Columns and labels:
[1] = Similar reaction run in the absence of enzyme (toluene / pH 7 buffer); format: physicochemical; details: for hydrolysis in the absence of enzyme: after 3 days; for hydrolysis in the absence of the enzyme: toluene / aqueous pH 7 buffer, time not stated
Protocol: Resveratrol tris(methyl carbonate) (100 mg; 0.249 mmol) was dissolved in 2 mL of toluene. […]
Hydroxytyrosol tris(methyl carbonate) (3, R=Me, 100 mg; 0.305 mmol) was dissolved in 2 mL of toluene. […]

[2] = Solubility in solvents; format: physicochemical
[3] = biological target: Novozym 435 (immobilized Candida Antarctica lipase B) (Moesziomyces antarcticus, UniProt P41365); test: Enzymatic hydrolysis with Novozym 435 in toluene / pH 7 buffer, HPLC analysis; details: for enzymatic hydrolysis: lipase, biphasic mixture of toluene and aqueous pH 7 buffer, time not stated
Protocol: Resveratrol tris(methyl carbonate) (100 mg; 0.249 mmol) was dissolved in 2 mL of toluene. 2 mL of pH 7 buffer was added followed by 100 mg of Novozym 435 (immobilized Candida Antarctica lipase B).
2 mL of pH 7 buffer was added followed by 100 mg of Novozym 435 (immobilized Candida Antarctica lipase B).
Resveratrol tripalmitate (100 mg; 0.11 mmol) was dissolved in 2 mL of toluene. 2 mL of pH 7 buffer was added followed by 100 mg of Novozym 435 (immobilized Candida Antarctica lipase B).
1 mL of pH 7 buffer was added followed by 100 mg of Novozym 435 (immobilized Candida Antarctica lipase B).
Hydroxytyrosol tris(methyl carbonate) (3, R=Me, 100 mg; 0.305 mmol) was dissolved in 2 mL of toluene. 2 mL of pH 7 buffer was added followed by 100 mg of Novozym 435 (immobilized Candida Antarctica lipase B).
Hydroxytyrosol trihexanoate containing 1.9% hydroxytyrosol by HPLC analysis (100 mg; 0.22 mmol) was dissolved in 2 mL of toluene. 2 mL of pH 7 buffer was added followed by 100 mg of Novozym 435 (immobilized Candida Antarctica lipase B).

[4] = 48 h, ambient temperature (trihexanoate contained 1.9% hydroxytyrosol at start)
[5] = 24 h, ambient temperature, equal volumes of both layers
[6] = 3 days, ambient temperature, toluene/pH 7 buffer
[7] = 1 day, ambient temperature, top layer only
[8] = 22 h, ambient temperature, toluene/pH 7 buffer, equal volumes of both layers

Chain of Novozym 435 (immobilized Candida Antarctica lipase B) (P41365 26-342): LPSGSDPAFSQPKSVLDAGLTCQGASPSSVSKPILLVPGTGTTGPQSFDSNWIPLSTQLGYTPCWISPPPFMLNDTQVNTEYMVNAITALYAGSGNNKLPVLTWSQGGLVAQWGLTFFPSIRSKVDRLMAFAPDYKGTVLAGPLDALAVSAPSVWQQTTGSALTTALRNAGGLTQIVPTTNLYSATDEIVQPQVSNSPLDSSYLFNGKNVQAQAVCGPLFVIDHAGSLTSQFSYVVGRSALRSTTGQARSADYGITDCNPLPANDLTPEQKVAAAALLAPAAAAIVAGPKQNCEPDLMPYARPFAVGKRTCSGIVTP

4-Hydroxybenzyl Alcohol bis(butyl carbonate)
hydrolysis in the absence of enzyme ([1]; toluene/pH 7 buffer): no detectable hydrolysis

OCc1ccc(O)cc1 [4-hydroxybenzyl alcohol, 4-Hydroxybenzyl alcohol]
solubility in toluene and water [2]: insolubility in both toluene and water

CCCCCC(=O)OCCc1ccc(OC(=O)CCCCC)c(OC(=O)CCCCC)c1 [Hydroxytyrosol trihexanoate, Hydroxytyrosol Trihexanoate, reference compound]
3,4-di(hexanoyl)phenylethanol by HPLC analysis ([3]; 48 h, ambient temperature): 18.7% | unchanged starting tris(methyl carbonate) or trihexanoate by HPLC analysis ([3]; 48 h, ambient temperature): 72.3% | hydroxytyrosol by HPLC analysis [3, 4]: 2.5%

COC(=O)OCCc1ccc(OC(=O)OC)c(OC(=O)OC)c1 [Hydroxytyrosol tris(methyl carbonate)]
hydroxytyrosol by HPLC analysis [3, 5]: 74% | mono- and di-carbonates by HPLC analysis [3, 5]: 1.5% | unchanged hydroxytyrosol tris(methyl carbonate) by HPLC analysis [3, 5]: 17% | mono- and di-carbonates by HPLC analysis ([3]; 48 h, ambient temperature): 5% | unchanged starting tris(methyl carbonate) or trihexanoate by HPLC analysis ([3]; 48 h, ambient temperature): 3% | hydroxytyrosol by HPLC analysis [3, 4]: 92% | hydrolysis to hydroxytyrosol in the absence of enzyme ([1]; after 2 days, toluene/pH 7 buffer): no detectable hydrolysis to hydroxytyrosol

CCCCCCCCCCCCCCCC(=O)Oc1ccc(C=Cc2cc(OC(=O)CCCCCCCCCCCCCCC)cc(OC(=O)CCCCCCCCCCCCCCC)c2)cc1 [Resveratrol tripalmitate, Resveratrol Tripalmitate, reference compound]
extent of enzymatic hydrolysis [3, 6]: minimal hydrolysis | unchanged starting tris(alkyl carbonate) or tripalmitate by HPLC analysis [3, 6]: 89% | enzymatic hydrolysis [3]: minimal hydrolysis

CCCCOC(=O)Oc1ccc(/C=C/c2cc(OC(=O)OCCCC)cc(OC(=O)OCCCC)c2)cc1 [Resveratrol tris(butyl carbonate)]
resveratrol bis(butyl carbonate) by HPLC analysis [3, 7]: 41% | resveratrol tris(butyl carbonate) remaining by HPLC analysis [3, 7]: 59% | resveratrol bis/di(alkyl carbonate) or dipalmitate by HPLC analysis [3, 6]: 41% | resveratrol by HPLC analysis [3, 6]: 35% | resveratrol mono(alkyl carbonate) by HPLC analysis [3, 6]: 5% | unchanged starting tris(alkyl carbonate) or tripalmitate by HPLC analysis [3, 6]: 19% | enzymatic hydrolysis [3]: undergo hydrolysis of the carbonate to afford dicarbonates, monocarbonates, and the parent triphenol | hydrolysis in the absence of the enzyme [1]: no observed hydrolysis

COC(=O)Oc1ccc(/C=C/c2cc(OC(=O)OC)cc(OC(=O)OC)c2)cc1 [Resveratrol tris(methyl carbonate)]
resveratrol bis(methyl carbonate) by HPLC analysis [3, 8]: 15.8% | resveratrol by HPLC analysis [3, 8]: 23.75% | resveratrol mono(methyl carbonate) by HPLC analysis [3, 8]: 52.9% | resveratrol tris(methyl carbonate) remaining by HPLC analysis [3, 8]: 7.0% | resveratrol bis/di(alkyl carbonate) or dipalmitate by HPLC analysis [3, 6]: 0.6% | resveratrol by HPLC analysis [3, 6]: 63.8% | resveratrol mono(alkyl carbonate) by HPLC analysis [3, 6]: 35.1% | unchanged starting tris(alkyl carbonate) or tripalmitate by HPLC analysis [3, 6]: no detectable | enzymatic hydrolysis [3]: undergo hydrolysis of the carbonate to afford dicarbonates, monocarbonates, and the parent triphenol | hydrolysis in the absence of enzyme ([1]; toluene/pH 7 buffer): no detectable hydrolysis | hydrolysis in the absence of the enzyme [1]: no observed hydrolysis
